Source: US20260234165A1, “MACROCYCLIC COMPOUNDS, PREPARATION METHOD THEREFOR, AND USE THEREOF” (GENFLEET THERAPEUTICS (SHANGHAI) INC., priority 2004, published 2026)
Read-outs that look alike come from different tables or passages of the source.

Experiment: Pharmacokinetic study in rats
Type: in vivo, Sprague-Dawley (SD) rats
Details: male SD rats; for clearance / CL: IV; for AUC / Cmax: PO (intragastric), dose 10 mg/kg
Text: A total of 6 healthy adult male Sprague-Dawley (SD) rats were provided by Zhejiang Vital River Laboratory Animal Technology Co., Ltd. For each test compound, 6 healthy adult male SD rats were selected and randomly divided into 2 groups: an intravenous administration (IV) group and an intragastric administration (PO) group. The LC-MS/MS method was used to determine the drug concentrations in the plasma of rats at different time points after intravenous and intragastric administration of the test compounds. This experiment was intended to investigate the pharmacokinetic performance of the test compounds in rats and to evaluate the pharmacokinetic characteristics. Each drug used in the experiment was prepared from the test compound powder: An appropriate amount of test compound powder was weighed out, and appropriate amounts of DMSO, a 10% aqueous Solutol HS 15 solution, and a 6% aqueous HP-β-CD solution were sequentially added according to a volume ratio of 5:10:85. The mixture was vortexed and sonicated until clarification. The final concentration of the drug in the IV group was 0.5 mg/mL, and the final concentration of the drug in the PO group was 1 mg/mL; the concentrations could be adjusted according to actual needs. For the drug in the PO group of Z504, an appropriate amount of test compound powder was weighed out, and an appropriate amount of 0.5% MC+0.2% Tween 80 aqueous solution was added. The mixture was well mixed by vortexing to give a 1 mg/mL homogeneous suspension: the concentration could be adjusted according to actual needs.
All experimental rats were fasted overnight, and food intake was resumed 4 h after administration. For the rats in the IV group, the administration volume was set at 2 mL/kg, with Z554 and Z915 administered at a dose of 0.5 mg/kg and the other compounds at a dose of 1 mg/kg. For the rats in the PO group, the administration volume was 10 mL/kg and the dose was 10 mg/kg. The administration amount was adjusted according to the body weight of the rats on the day of administration. In the experiment, blood samples were collected from the rats in the IV group at multiple time points (0.0833 h, 0.25 h, 0.5 h, 1 h, 2 h, 4 h, 7 h, and 24 h) after administration, while blood samples were collected from the PO group at 0.25 h, 0.5 h, 1 h, 2 h, 4 h, 7 h, and 24 h after administration, with approximately 100 μL collected each time via the orbital blood collection method.
The blood samples were placed in centrifuge tubes containing EDTA-K2 and centrifuged at 8000 rpm for 4 min within 30 min to separate the supernatant plasma. The resulting plasma samples were stored at −20° C. for later use. For sample analysis, 20 μL of each of plasma samples and calibration standards was added to a 96-well plate, and 160 μL of acetonitrile containing 100 ng/mL tolbutamide was added. The samples were vortexed for 5 min for uniform mixing, and then centrifuged at 4000 rpm for 15 min. After the centrifugation was completed, 50 μL of supernatant was added to a 96-well plate containing 150 μL of deionized water. The plate was then sealed and shaken for uniform mixing. Sample analysis was performed by LC-MS/MS.
The sampling volume could be adjusted according to actual needs, but the final concentration should be kept unchanged.

[1] = Sprague-Dawley, rat, plasma, dose 1 mg/kg
[2] = Sprague-Dawley, rat, plasma, read-out: AUC
[3] = Sprague-Dawley, rat, plasma, read-out: Cmax
[4] = Sprague-Dawley, rat, plasma, dose 0.5 mg/kg

| SMILES | clearance [1] | AUC [2] | Cmax [3] | CL (dose 1 mg/kg) | AUC | Cmax | clearance [4] |
| --- | --- | --- | --- | --- | --- | --- | --- |
| CCn1c(-c2cc(C#C[C@@H]3COCCN3C)cnc2[C@H](C)OC)c2c3cc(ccc31)-c1csc(n1)C[C@H](NC(=O)[C@H]1[C@H](C)[C@@H]1C)C(=O)N1CCC[C@H](N1)C(=O)OCC(C)(C)C2 (atropisomer, axis not shown; (Ra)) [Compound Z672, (1r,2R,3S)—N-((6^3S,4S,Z)-1^1-ethyl-(Ra)-1^2-(2-((S)-1-methoxyethyl)-5-(((R)-4-methylmorpholin-3-yl)ethynyl)pyridin-3-yl)-10,10-dimethyl-5,7-dioxo-6^1,6^2,6^3,6^4,6^5,6^6hexahydro-1^1H-8-oxa-2(4,2)-thiazola-1(5,3)-indola-6(1,3)-pyridazinacycloundecaphane-4-yl)-2,3-dimethylcyclopropane-1-carboxamide] | 11.8 mL/min/kg | 2940 ng·h/mL | 738 ng/mL |  |  |  |  |
| CCn1c(-c2cc(C#CCN3C4CCC3COC4)cnc2[C@H](C)OC)c2c3cc(ccc31)-c1csc(n1)C[C@H](NC(=O)[C@H]1[C@H](C)[C@@H]1C)C(=O)N1CCC[C@H](N1)C(=O)OCC(C)(C)C2 (atropisomer, axis not shown; (Ra)) [Compound Z711, (1r,2R,3S)—N-((6^3S,4S,Z)—(Ra)-1^2-(5-(3-(3-oxa-8-azabicyclo[3.2.1]octan-8-yl)prop-1-yn-1-yl)-2-((S)-1-methoxyethyl)pyridin-3-yl)-1^1-ethyl-10,10-dimethyl-5,7-dioxo-6^1,6^2,6^3,6^4,6^5,6^6-hexahydro-1^1H-8-oxa-2(4,2)-thiazola-1(5,3)-indola-6(1,3)-pyridazinacycloundecaphane-4-yl)-2,3-dimethylcyclopropane-1-carboxamide] |  |  |  | 3.82 mL/min/kg | 8876 ng·h/mL | 1867 ng/mL |  |
| CCn1c(-c2cc(C#CCN3CCC(C(F)(F)F)CC3)cnc2[C@H](C)OC)c2c3cc(ccc31)-c1csc(n1)C[C@H](NC(=O)[C@H]1[C@H](C)[C@@H]1C)C(=O)N1CCC[C@H](N1)C(=O)OCC(C)(C)C2 (atropisomer, axis not shown; (Ra)) [Compound Z778] | 5.31 mL/min/kg | 4020 ng·h/mL | 702 ng/mL |  |  |  |  |
| CCn1c(-c2cc(C#CCN(C)CCOC)cnc2[C@H](C)OC)c2c3cc(ccc31)-c1csc(n1)C[C@H](NC(=O)[C@H]1[C@H](C)[C@@H]1C)C(=O)N1CCC[C@H](N1)C(=O)OCC(C)(C)C2 (atropisomer, axis not shown; (Ra)) [Compound Z788] |  |  |  | 3.58 mL/min/kg | 8529 ng·h/mL | 2110 ng/mL |  |
| CCn1c(-c2cc(C#CCN3CCN(C)C(=O)C3)cnc2[C@H](C)OC)c2c3cc(ccc31)-c1csc(n1)C[C@H](NC(=O)[C@H]1[C@H](C)[C@@H]1C)C(=O)N1CCC[C@H](N1)C(=O)OCC(C)(C)C2 (atropisomer, axis not shown; (Ra)) [Compound Z793] | 3.16 mL/min/kg | 5920 ng·h/mL | 2040 ng/mL |  |  |  |  |
| CCn1c(-c2cc(C#CCN3CCOC[C@H]3C)cnc2[C@H](C)OC)c2c3cc(ccc31)-c1csc(n1)C[C@H](NC(=O)[C@H]1[C@H](C)[C@@H]1C)C(=O)N1CCCC(N1)C(=O)OCC(C)(C)C2 (atropisomer, axis not shown; (Ra)) [Compound Z813] |  |  |  | 14.9 mL/min/kg | 1643 ng·h/mL | 401 ng/mL |  |
| CCn1c(-c2cc(C#CCN3CCS(=O)(=O)CC3)cnc2[C@H](C)OC)c2c3cc(ccc31)-c1csc(n1)C[C@H](NC(=O)[C@H]1[C@H](C)[C@@H]1C)C(=O)N1CCC[C@H](N1)C(=O)OCC(C)(C)C2 (atropisomer, axis not shown; (Ra)) [Compound Z838, (1r,2R,3S)—N-((6^3S,4S,Z)—(Ra)-1^2-(5-(3-(1,1-dioxidothiomorpholino)prop-1-yn-1-yl)-2-((S)-1-methoxyethyl)pyridin-3-yl)-1^1-ethyl-10,10-dimethyl-5,7-dioxo-6^1,6^2,6^3,6^4,6^5,6^6-hexahydro-1^1H-8-oxa-2(4,2)-thiazola-1(5,3)-indola-6(1,3)-pyridazinacycloundecaphane-4-yl)-2,3-dimethylcyclopropane-1-carboxamide] | 2.51 mL/min/kg | 3900 ng·h/mL | 1400 ng/mL |  |  |  |  |
| CCn1c(-c2cc(C#CCN3CCS(=O)(=O)CC3)cnc2[C@H](C)OC)c2c3cc(ccc31)-c1csc(n1)C[C@H](Nc1nnc3cc(C)ccn13)C(=O)N1CCC[C@H](N1)C(=O)OCC(C)(C)C2 (atropisomer, axis not shown; (Ra)) [Compound Z911, (6^3S,4S,Z)—(Ra)-1^2-(5-(3-(1,1-dioxidothiomorpholino)prop-1-yn-1-yl)-2-((S)-1-methoxyethyl)pyridin-3-yl)-1^1-ethyl-10,10-dimethyl-4-((7-methyl-[1,2,4]triazolo[4,3-a]pyridin-3-yl)amino)-6^1,6^2,6^3,6^4,6^5,6^6-hexahydro-1^1H-8-oxa-2(4,2)-thiazola-1(5,3)-indola-6(1.3)-pyridazinacycloundecaphane-5,7-dione] | 0.41 mL/min/kg | 2540 ng·h/mL | 427 ng/mL |  |  |  |  |
| CCn1c(-c2cc(C#CCN3CCCOCC3)cnc2[C@H](C)OC)c2c3cc(ccc31)-c1csc(n1)C[C@H](NC(=O)CC1CC1)C(=O)N1CCC[C@H](N1)C(=O)OCC(C)(C)C2 (atropisomer, axis not shown; (Ra)) [Compound Z915] |  | 6840 ng·h/mL | 1730 ng/mL |  |  |  | 6 mL/min/kg |
| CCn1c(-c2cc(C#CCN3CCCOCC3)cnc2[C@H](C)OC)c2c3cc(ccc31)-c1csc(n1)C[C@H](NC(=O)[C@H]1C[C@@H]1C)C(=O)N1CCC[C@H](N1)C(=O)OCC(C)(C)C2 (single isomer, unassigned) [Compound Z604] | 2.46 mL/min/kg | 14600 ng·h/mL | 3010 ng/mL |  |  |  |  |

Continued, values first:

| clearance [1] | AUC [2] | Cmax [3] | CL (dose 1 mg/kg) | AUC | Cmax | clearance [4] | SMILES |
| --- | --- | --- | --- | --- | --- | --- | --- |
|  |  |  | 7.66 mL/min/kg | 3259 ng·h/mL | 681 ng/mL |  | CO[C@@H](C)c1ncc(C#CCN2CCCOCC2)cc1-c1c2c3cc(ccc3n1CC(F)(F)F)-c1csc(n1)C[C@H](NC(=O)[C@H]1[C@H](C)[C@@H]1C)C(=O)N1CCC[C@H](N1)C(=O)OCC(C)(C)C2 (atropisomer, axis not shown; (Ra)) [Compound Z700, N-((6^3S,4S,Z)-1^1-(2,2,2-trifluoroethyl)-(Ra)-1^2-(2-((S)-1-methoxyethyl)-(5-(3-(1,4-oxazepan-4-yl)prop-1-yn-1-yl))-pyridin-3-yl)-10,10-dimethyl-5,7-dioxo-6^1,6^2,6^3,6^4,6^5,6^6-hexahydro-1^1H-8-oxa-2(4,2)-thiazola-1(5,3)-indola-6(1,3)-pyridazinacycloundecaphane-4-yl)-2,3-dimethylcyclopropane-1-carboxamide] |
|  |  |  | 1.14 mL/min/kg | 29002 ng·h/mL | 4303 ng/mL |  | CCn1c(-c2cc(C#CCN3CCCOCC3)cnc2C(C)C)c2c3cc(ccc31)-c1csc(n1)C[C@H](NC(=O)[C@H]1[C@H](C)[C@@H]1C)C(=O)N1CCC[C@H](N1)C(=O)OCC(C)(C)C2 (atropisomer, axis not shown; (Sa)) [Compound Z811-2, (1r,2R,3S)—N-((6^3S,4S,Z)—(Sa)-1-(5-(3-(1,4-oxazepan-4-yl)prop-1-yn-1-yl)-2-isopropylpyridin-3-yl)-1^1-ethyl-10,10-dimethyl-5,7-dioxo-6^1,6^2,6^3,6^4,6^5,6^6-hexahydro-1^1H-8-oxa-2(4,2)-thiazola-1(5,3)-indola-6(1,3)-pyridazinacycloundecaphane-4-yl)-2,3-dimethylcyclopropane-1-carboxamide] |
| 4 mL/min/kg | 5320 ng·h/mL | 605 ng/mL |  |  |  |  | CCn1c(-c2cc(C#CCN3CCCOCC3)cnc2[C@H](C)OC)c2c3cc(ccc31)-c1csc(n1)C[C@H](NC(=O)[C@H]1[C@H](C)[C@@H]1C)C(=O)N1CCC[C@H](N1)C(=O)OCC(C)(C)C2 (single isomer, unassigned) [Compound Z504] |
|  | 16600 ng·h/mL | 2780 ng/mL |  |  |  | 2.52 mL/min/kg | CCn1c(-c2cc(C#CCN3CCC3)cnc2[C@H](C)OC)c2c3cc(ccc31)-c1csc(n1)C[C@H](NC(=O)[C@H]1[C@H](C)[C@@H]1C)C(=O)N1CCC[C@H](N1)C(=O)OCC(C)(C)C2 (single isomer, unassigned) [Compound Z554] |
